{
  "source": "patent US20230405004A1",
  "about": "(NEURORIVE INC, priority 2020, published 2023)",
  "key": {"5xFAD mouse [1]": {"system": "5xFAD mouse", "assay": "Y-maze test", "format": "in vivo", "details": "donepezil 2 mg/kg oral", "description": "In order to test an improvement effect on short-term working memory ability according to the administration of the complex composition of the present invention, a Y-maze test was performed using the mouse model of the Alzheimer's disease described above. For the experiment, a Y-shaped maze (36 cm in width, 16 cm in length, 15 cm in height) having three arms was used, and the mice started randomly in three arms. The mice were placed in the maze, then the number of times when the center of the mouse body entered each arm and the cases in which the mice entered each arm sequentially were checked. The alternation behavior is defined as consecutive entries in three different arms without overlapping, and spontaneous alternation behavior was calculated by the following equation:\nAlternation (%)=(the number of entities into all the 3 arms on consecutive/the number of entirety arms entries−2)×100\nThen, each group was subjected to oral administration to perform the experiment."}, "5xFAD mouse [2]": {"system": "5xFAD mouse", "assay": "Morris water maze (MWM) task", "format": "in vivo", "details": "for Escape latency (Increase or decrease compared to mutated mouse vehicle group): DAY 4; for time spent in the target quadrant (Increase or decrease compared to mutated mouse vehicle group): probe test DAY 5", "method": "The 5xFAD mouse used in this experiment was a genetically modified mouse model in which Alzheimer's disease-inducing genes were inserted. Specifically, mice over-expressed both the amyloid precursor protein with the Swedish mutation (K670N, M671L), the Florida mutation […], and the London mutation (V717I) and PS1 with the M146L and L286V mutations. The 5xFAD mouse model is the most widely used in Alzheimer's disease studies.\nA Morris water maze (MWM) task was conducted to examine an effect on improving cognitive function depending on the administration of the complex composition of the present invention. The experimental equipment was comprised of a circular water tank (150 cm in diameter and 45 cm in height) filled with water having a temperature of about 22±2° C., an escape platform (10 cm in diameter and 30 cm in height), and 4 markers attached to the wall that allows the mouse to remember the location of the escape platform. The above markers remained unchanged throughout the test period. The escape platform was placed 1 cm above the water surface or 0.5 to 1.5 cm below the water surface according to the purpose of the experiment. When placed under the water surface, the water was made opaque with white water-based paint so that the escape platform was not visible to the eye. The Morris water maze was divided into four quadrants, i.e., northeast (NE), northwest (NW), southeast (SE) and southwest (SW), wherein the escape platform was placed in the center of the southwest quadrant, and the mouse started randomly from one of the others.\nThe escape platform was made visible on Learning DAY 0. Each mouse was trained to recognize that it was possible to escape when they swam toward the escape platform and landed thereon. On DAY 1-4, the escape platform was hidden by being placed under the water, and then the mice learned the position of the escape platform. The time limit was set to 60 seconds, and if the mouse found the escape platform within 60 seconds, it was allowed to stay on the escape platform for 5 seconds. The mice were then immediately transferred to the breeding cage. On DAY 5, the probe test was performed without the escape platform. The probe test was performed by placing the mouse in the farthest part of the quadrant where the escape platform was placed during the training day, and 60 seconds was set as the time limit. The indexes of cognitive function include the escape latency which is the time required for the mouse to find the escape platform and the time spent in the quadrant where the escape platform was placed. It was judged that the shorter the time it takes to escape (FIG. 2A) and the longer the mouse stays in the quadrant where the escape platform was placed (FIG. 2B), the better the memory and learning ability of the mouse.\nThen, each group was subjected to oral administration for 4 weeks to perform the experiment."}},
  "data": [
    {"smiles": "COc1cc2c(cc1OC)C(=O)C(CC1CCN(Cc3ccccc3)CC1)C2", "note": "(stereo not drawn) [Donepezil, donepezil]", "values": [
      {"measurement": "Voluntary alternation behavior (Increase or decrease compared to mutated mouse vehicle group)", "setting": "5xFAD mouse [1]", "value": 25.15, "unit": "%"},
      {"measurement": "Escape latency (Increase or decrease compared to mutated mouse vehicle group)", "setting": "5xFAD mouse [2]; donepezil 1 mg/kg oral 4 weeks", "value": "−20.15", "unit": "%"},
      {"measurement": "time spent in the target quadrant (Increase or decrease compared to mutated mouse vehicle group)", "setting": "5xFAD mouse [2]; donepezil 1 mg/kg oral 4 weeks", "value": 51.63, "unit": "%"},
      {"measurement": "Escape latency (Increase or decrease compared to mutated mouse vehicle group)", "setting": "5xFAD mouse [2]; donepezil 2 mg/kg oral 4 weeks", "value": "−33.79", "unit": "%"},
      {"measurement": "time spent in the target quadrant (Increase or decrease compared to mutated mouse vehicle group)", "setting": "5xFAD mouse [2]; donepezil 2 mg/kg oral 4 weeks", "value": 148.46, "unit": "%"},
      {"measurement": "escape latency reduced by, based on the mutant mouse vehicle group", "setting": "5xFAD mouse [2]; mutated mouse, donepezil 2 mg/kg alone, stated as reduction", "value": 33.79, "unit": "%"}
    ]}
  ]
}
